# Experimental data: PubChem BioAssay (NCI)
#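 Grown in 96-well plates, cells were treated for 48 hours with each compound at five concentrations. Insufficient inhibition: endpoint recorded as highest concentration tested. TGI marks complete inhibition of growth.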
# Legend:
# Experiment in all cases: growth of human tumour cells (NCI), 48 h
# SF-268 CNS = tested on: SF-268 CNS
# NCI-H23 lung = tested on: NCI-H23 lung
# A549 NSCLC = tested on: A549 NSCLC
# UO-31 renal = tested on: UO-31 renal
# HOP-92 NSCLC = tested on: HOP-92 NSCLC
# RXF 393 renal = tested on: RXF 393 renal
# A498 renal = tested on: A498 renal
# ACHN renal = tested on: ACHN renal
# MCF7 breast = tested on: MCF7 breast
# DU-145 prostate = tested on: DU-145 prostate
# SW-620 colon = tested on: SW-620 colon
# OVCAR-5 ovarian = tested on: OVCAR-5 ovarian
# EKVX NSCLC = tested on: EKVX NSCLC
# T-47D breast = tested on: T-47D breast
# TK-10 renal = tested on: TK-10 renal
# PC-3 prostate = tested on: PC-3 prostate
# HS 578T breast = tested on: HS 578T breast
# HL-60(TB) leukemia = tested on: HL-60(TB) leukemia
# MALME-3M melanoma = tested on: MALME-3M melanoma
# HCT-15 colon = tested on: HCT-15 colon
# SK-OV-3 ovarian = tested on: SK-OV-3 ovarian
# SK-MEL-28 melanoma = tested on: SK-MEL-28 melanoma
# COLO 205 colon = tested on: COLO 205 colon
# UACC-257 melanoma = tested on: UACC-257 melanoma
# CAKI-1 renal = tested on: CAKI-1 renal
# HCT-116 colon = tested on: HCT-116 colon
# HOP-62 NSCLC = tested on: HOP-62 NSCLC
# 786-0 renal = tested on: 786-0 renal
# KM12 colon = tested on: KM12 colon
# OVCAR-4 ovarian = tested on: OVCAR-4 ovarian
# HT29 colon = tested on: HT29 colon
# SF-295 CNS = tested on: SF-295 CNS
# SK-MEL-5 melanoma = tested on: SK-MEL-5 melanoma
# SNB-19 CNS = tested on: SNB-19 CNS
# OVCAR-8 ovarian = tested on: OVCAR-8 ovarian
# IGROV1 ovarian = tested on: IGROV1 ovarian
# M14 melanoma = tested on: M14 melanoma
# NCI-H460 lung = tested on: NCI-H460 lung
# RPMI-8226 leukemia = tested on: RPMI-8226 leukemia
# NCI/ADR-RES ovarian = tested on: NCI/ADR-RES ovarian
# MOLT-4 leukemia = tested on: MOLT-4 leukemia
# CCRF-CEM leukemia = tested on: CCRF-CEM leukemia
# SR leukemia = tested on: SR leukemia
# MDA-N = tested on: MDA-N
# K-562 leukemia = tested on: K-562 leukemia
# U251 CNS = tested on: U251 CNS
# SNB-75 CNS = tested on: SNB-75 CNS
# HCC-2998 colon = tested on: HCC-2998 colon
# OVCAR-3 ovarian = tested on: OVCAR-3 ovarian
# LOX IMVI melanoma = tested on: LOX IMVI melanoma
# SF-539 CNS = tested on: SF-539 CNS
# SN12C renal = tested on: SN12C renal
# MDA-MB-231 breast = tested on: MDA-MB-231 breast
# NCI-H522 lung = tested on: NCI-H522 lung
# SK-MEL-2 melanoma = tested on: SK-MEL-2 melanoma
# NCI-H226 lung = tested on: NCI-H226 lung
# MDA-MB-435 = tested on: MDA-MB-435
compound,measurement,setting,value
C[N+]1(C)CCCC(C#N)(c2ccccc2)CC1 (stereo not drawn),TGI,SF-268 CNS,> 100 µM
same,TGI,NCI-H23 lung,> 100 µM
same,TGI,A549 NSCLC,> 100 µM
same,TGI,UO-31 renal,> 100 µM
same,TGI,HOP-92 NSCLC,> 100 µM
same,TGI,RXF 393 renal,> 100 µM
same,TGI,A498 renal,> 100 µM
same,TGI,ACHN renal,> 100 µM
same,TGI,MCF7 breast,> 100 µM
same,TGI,DU-145 prostate,> 100 µM
same,TGI,SW-620 colon,> 100 µM
same,TGI,OVCAR-5 ovarian,> 100 µM
same,TGI,EKVX NSCLC,> 100 µM
same,TGI,T-47D breast,> 100 µM
same,TGI,TK-10 renal,> 100 µM
same,TGI,PC-3 prostate,> 100 µM
same,TGI,HS 578T breast,> 100 µM
same,TGI,HL-60(TB) leukemia,> 100 µM
same,TGI,MALME-3M melanoma,> 100 µM
same,TGI,HCT-15 colon,> 100 µM
same,TGI,SK-OV-3 ovarian,> 100 µM
same,TGI,SK-MEL-28 melanoma,> 100 µM
same,TGI,COLO 205 colon,> 100 µM
same,TGI,UACC-257 melanoma,> 100 µM
same,TGI,CAKI-1 renal,> 100 µM
same,TGI,HCT-116 colon,> 100 µM
same,TGI,HOP-62 NSCLC,> 100 µM
same,TGI,786-0 renal,> 100 µM
same,TGI,KM12 colon,> 100 µM
same,TGI,OVCAR-4 ovarian,> 100 µM
same,TGI,HT29 colon,> 100 µM
same,TGI,SF-295 CNS,> 100 µM
same,TGI,SK-MEL-5 melanoma,> 100 µM
same,TGI,SNB-19 CNS,> 100 µM
same,TGI,OVCAR-8 ovarian,> 100 µM
same,TGI,IGROV1 ovarian,> 100 µM
same,TGI,M14 melanoma,> 100 µM
same,TGI,NCI-H460 lung,> 100 µM
same,TGI,RPMI-8226 leukemia,> 100 µM
same,TGI,NCI/ADR-RES ovarian,> 100 µM
same,TGI,MOLT-4 leukemia,> 100 µM
same,TGI,CCRF-CEM leukemia,> 100 µM
same,TGI,SR leukemia,> 100 µM
same,TGI,MDA-N,> 100 µM
same,TGI,K-562 leukemia,> 100 µM
same,TGI,U251 CNS,> 100 µM
same,TGI,SNB-75 CNS,> 100 µM
same,TGI,HCC-2998 colon,> 100 µM
CSc1cc(Cl)c(C)cc1S(=O)(=O)NC(=O)NNc1ccc(C)cc1,TGI,SF-268 CNS,> 100 µM
same,TGI,A549 NSCLC,> 100 µM
same,TGI,RXF 393 renal,> 100 µM
same,TGI,OVCAR-3 ovarian,> 100 µM
same,TGI,A498 renal,> 100 µM
same,TGI,ACHN renal,> 100 µM
same,TGI,MCF7 breast,> 100 µM
same,TGI,DU-145 prostate,> 100 µM
same,TGI,SW-620 colon,> 100 µM
same,TGI,LOX IMVI melanoma,> 100 µM
same,TGI,OVCAR-5 ovarian,> 100 µM
same,TGI,EKVX NSCLC,> 100 µM
same,TGI,T-47D breast,> 100 µM
same,TGI,SF-539 CNS,> 100 µM
same,TGI,PC-3 prostate,> 100 µM
same,TGI,HS 578T breast,> 100 µM
same,TGI,MALME-3M melanoma,> 100 µM
same,TGI,HCT-15 colon,> 100 µM
same,TGI,SK-OV-3 ovarian,> 100 µM
same,TGI,SN12C renal,> 100 µM
same,TGI,SK-MEL-28 melanoma,> 100 µM
same,TGI,COLO 205 colon,> 100 µM
same,TGI,CAKI-1 renal,> 100 µM
same,TGI,HCT-116 colon,> 100 µM
same,TGI,HOP-62 NSCLC,> 100 µM
same,TGI,786-0 renal,> 100 µM
same,TGI,MDA-MB-231 breast,> 100 µM
same,TGI,KM12 colon,> 100 µM
same,TGI,OVCAR-4 ovarian,> 100 µM
same,TGI,HT29 colon,> 100 µM
same,TGI,SF-295 CNS,> 100 µM
same,TGI,SK-MEL-5 melanoma,> 100 µM
same,TGI,SNB-19 CNS,> 100 µM
same,TGI,OVCAR-8 ovarian,> 100 µM
same,TGI,IGROV1 ovarian,> 100 µM
same,TGI,M14 melanoma,> 100 µM
same,TGI,NCI-H460 lung,> 100 µM
same,TGI,NCI/ADR-RES ovarian,> 100 µM
same,TGI,MOLT-4 leukemia,> 100 µM
same,TGI,CCRF-CEM leukemia,> 100 µM
same,TGI,NCI-H522 lung,> 100 µM
same,TGI,SK-MEL-2 melanoma,> 100 µM
same,TGI,SR leukemia,> 100 µM
same,TGI,MDA-N,> 100 µM
same,TGI,K-562 leukemia,> 100 µM
same,TGI,NCI-H226 lung,> 100 µM
same,TGI,U251 CNS,> 100 µM
same,TGI,MDA-MB-435,> 100 µM
same,TGI,SNB-75 CNS,> 100 µM
same,TGI,HCC-2998 colon,66.1 µM
